Reference: patent US8513462B2, “Pesticides and uses thereof” (Dow AgroSciences LLC, priority 2007, dated 2013)

System: green peach aphid (Myzus persicae)
Assay: Insecticidal test for green peach aphid in foliar spray assay
Format: in vivo
Details: 72 h, foliar spray on cabbage, Corrected % Control (Abbott) after three days, read-out: Rating against green peach aphid on cabbage (foliar spray)
Experimental: Squash seedlings with fully expanded cotyledon leaves were trimmed to one cotyledon per plant and infested with cotton aphid (wingless adults and nymphs) 1 day prior to chemical application. Each plant was examined before chemical application to ensure uniform infestation (ca. 30-70 aphids per plant). Compounds (2 mg) were dissolved in 2 ml of acetone:methanol (1:1) solvent, forming stock solutions of 1000 ppm. The stock solutions were diluted 5× with 0.025% Tween 20 in H2O to obtain a solution at 200 ppm. A hand-held Devilbiss aspirator type sprayer was used to apply the spray solutions until runoff to both sides of the squash cotyledon leaves. Four plants (4 replications) were used for each compound. Reference plants (solvent check) were sprayed with the diluent only. Treated plants were held in a holding room for 3 days at approximately 23° C. and 40% RH before the number of live aphids on each plant was recorded. Insecticidal activity was measured by Corrected % Control using Abbott's correction formula and presented in Table 1-Activity: Corrected % Control=100*(X−Y)/X • where X=No. of live aphids on solvent check plants • Y=No. of live aphids on treated plants Results are shown in Table 7. Insecticidal Test for Green Peach Aphid (Myzus persicae) in Foliar Spray Assay Cabbage seedlings grown in 3-inch pots, with 2-3 small (3-5 cm) true leaves, were used as test substrate. The seedlings were infested with 20-50 green peach aphids (wingless adult and nymph) 1-2 days prior to chemical application. Four seedlings were used for each treatment. Compounds (2 mg) were dissolved in 2 ml of acetone:methanol (1:1) solvent, forming stock solutions of 1000 ppm. The stock solutions were diluted 5× with 0.025% Tween 20 in H2O to obtain a solution at 200 ppm. A hand-held Devilbiss aspirator sprayer was used for spraying a solution to both sides of cabbage leaves until runoff. Reference plants (solvent check) were sprayed with the diluent only. Treated plants were held in a holding room for three days at approximately 23° C. and 40% RH prior to grading. Evaluation was conducted by counting the number of live aphids per plant under a microscope. Insecticidal activity was measured by using Abbott's correction formula: Corrected % Control=100*(X−Y)/X • where X=No. of live aphids on solvent check plants • Y=No. of live aphids on treated plants

SMILES	pest or weed control at 200 ppm [%]
CC(c1ccc(C(F)(F)F)nc1)S(C)(=O)=Nc1cc(F)ccn1 (stereo not drawn) [Compound 3, 3-[1-ethyl(N-(2-(4-fluoro)pyridine)-sulfoximinyl)(methyl)]-6-trifluoromethylpyridine]	80 to 100
CC(c1ccc(C(F)(F)F)nc1)S(C)(=O)=Nc1nc(-c2csc3ccccc23)cs1 (stereo not drawn) [Compound 40]	80 to 100
CCCCC(c1ccc(C(F)(F)F)nc1)S(C)(=O)=Nc1nc(-c2ccc(OC)cc2)cs1 (stereo not drawn) [Compound 60, 5-{1-[methyl(4-(4-methoxyphenyl)-1,3-thiazol-2-yl)sulfonimidoyl]pentyl}-2-(trifluoromethyl)pyridine]	< 80
Cc1nc(N=S(C)(=O)C(C)c2ccc(C(F)(F)F)nc2)sc1C (stereo not drawn) [Compound 67, 5-{1-[(4,5-dimethyl-1,3-thiazol-2-yl)(methyl)sulfonimidoyl]ethyl}-2-(trifluoromethyl)pyridine]	80 to 100
CCOC(C)(C)c1csc(N=S(C)(=O)C(C)c2ccc(C(F)(F)F)nc2)n1 (stereo not drawn) [Compound 31]	80 to 100
CC(c1ccc(C(F)(F)F)nc1)S(C)(=O)=Nc1ncccc1F (stereo not drawn) [Compound 9]	80 to 100
Cc1sc(N=S(C)(=O)C(C)c2ccc(C(F)(F)F)nc2)nc1-c1ccccc1 (stereo not drawn) [Compound 66, 5-{1-[methyl(5-methyl-4-phenyl-1,3-thiazol-2-yl)sulfonimidoyl]ethyl}-2-(trifluoromethyl)pyridine]	80 to 100
CC(c1ccc(C(F)(F)F)nc1)S(C)(=O)=Nc1nc(-c2ccc3c(c2)OCO3)cs1 (stereo not drawn) [Compound 47]	80 to 100
O=S1(=Nc2nc(C(F)(F)F)cs2)CCCC1c1ccc(Cl)nc1 (stereo not drawn) [Compound 79]	80 to 100
Cc1ccsc1-c1nc(N=S(C)(=O)C(C)c2ccc(C(F)(F)F)nc2)sc1C (stereo not drawn) [Compound 36]	80 to 100
CC(c1ccc(C(F)(F)F)nc1)S(C)(=O)=Nc1nnc(C(F)F)s1 (racemic) [Compound 69, 5-{1-[[5-(difluoromethyl)-1,3,4-thiadiazol-2-yl](methyl)sulfonimidoyl]ethyl}-2-(trifluoromethyl)pyridine]	80 to 100
CCc1coc(N=S(C)(=O)C(C)c2ccc(C(F)(F)F)nc2)n1 (stereo not drawn) [Compound 70, 5-{1-[methyl(4-ethyl-1,3-oxazol-2-yl)sulfonimidoyl]ethyl}-2-(trifluoromethyl)pyridine]	80 to 100
CC(c1ccc(C(F)(F)F)nc1)S(C)(=O)=Nc1nc(-c2ccc([N+](=O)[O-])cc2)cs1 (stereo not drawn) [Compound 49]	80 to 100
CC(c1ccc(C(F)(F)F)nc1)S(C)(=O)=Nc1nc(-c2cc(-c3ccc(Cl)cc3)no2)cs1 (stereo not drawn) [Compound 42]	80 to 100
COc1ccc(-c2csc(N=S(C)(=O)Cc3ccc(Cl)nc3)n2)cc1 (stereo not drawn) [Compound 57, 5-{[methyl[4-(4-methoxyphenyl)-1,3-thiazol-2-yl]sulfonimidoyl]methyl}-2-chloropyridine]	< 80
COc1ccc(-c2csc(N=S(C)(=O)C(C)c3ccc(C(F)(F)F)nc3)n2)c(OC)c1 (stereo not drawn) [Compound 53]	80 to 100
CC(c1ccc(C(F)(F)F)nc1)S(C)(=O)=Nc1ccsc1[N+](=O)[O-] (stereo not drawn) [Compound 17]	< 80
CC(c1ccc(C(F)(F)F)nc1)S(C)(=O)=Nc1nc(-c2ccc(Cl)cc2)cs1 (stereo not drawn) [Compound 22]	80 to 100
CSCc1cnc(N=S(C)(=O)C(C)c2ccc(C(F)(F)F)nc2)s1 (stereo not drawn) [Compound 64, 5-[1-(methyl{5-[(methylsulfanyl)methyl]-1,3-thiazol-2-yl}sulfonimidoyl)ethyl]-2-(trifluoromethyl)pyridine]	80 to 100
CC(c1ccc(C(F)(F)F)nc1)S(C)(=O)=Nc1ncc(Cc2ccccc2)s1 (racemic) [Compound 61, 5-{1-[(5-benzyl-1,3-thiazol-2-yl)(methyl)sulfonimidoyl]ethyl}-2-(trifluoromethyl)pyridine]	80 to 100

SMILES	pest or weed control at 200 ppm [%]
Cc1cc(-c2csc(N=S(C)(=O)C(C)c3ccc(C(F)(F)F)nc3)n2)ccc1Cl (stereo not drawn) [Compound 50]	80 to 100
Cc1coc(N=S(C)(=O)C(C)c2ccc(C(F)(F)F)nc2)n1 (stereo not drawn) [Compound 71]	80 to 100
Cc1oc(N=S(C)(=O)C(C)c2ccc(C(F)(F)F)nc2)nc1-c1ccc(Br)cc1 (stereo not drawn) [Compound 73]	80 to 100
Cc1csc(N=S(C)(=O)C(C)c2ccc(C(F)(F)F)nc2)n1 (stereo not drawn) [Compound 14]	< 80
Cc1nc(N=S(C)(=O)C(C)c2ccc(C(F)(F)F)nc2)oc1C (stereo not drawn) [Compound 72]	< 80
CC(c1ccc(C(F)(F)F)nc1)S(C)(=O)=Nc1nc2c(s1)CCc1nonc1-2 (racemic) [Compound 65, 7-[(methyl(oxo){1-[6-(trifluoromethyl)-3-pyridinyl]ethyl}-λ^6-sulfanylidene)amino]-4,5-dihydro[1,3]thiazolo[4,5-e][2,1,3]-benzoxadiazole]	80 to 100
CC(c1ccc(C(F)(F)F)nc1)S(C)(=O)=Nc1nc(-c2ccncc2)cs1 (stereo not drawn) [Compound 34]	80 to 100
CC(c1ccc(C(F)(F)F)nc1)S(C)(=O)=Nc1cccc(C(F)(F)F)n1 (stereo not drawn) [Compound 11]	< 80
CCc1csc(N=S(C)(=O)C(C)c2ccc(C(F)(F)F)nc2)n1 (stereo not drawn) [Compound 28]	80 to 100
COc1ccc(-c2csc(N=S(C)(=O)C(C)c3ccc(C(F)(F)F)nc3)n2)cc1 (stereo not drawn) [Compound 23]	80 to 100
CC(c1ccc(C(F)(F)F)nc1)S(C)(=O)=Nc1cccc(F)n1 (stereo not drawn) [Compound 10]	< 80
CC(c1ccc(C(F)(F)F)nc1)S(C)(=O)=Nc1nc(C(F)(F)F)cs1 (stereo not drawn) [Compound 26, 3-[1-ethyl(N-(2-(4-trifluoromethyl)thiazole)-sulfoximinyl)(methyl)]-6-trifluoromethylpyridine]	80 to 100
CC(c1ccc(C(F)(F)F)nc1)S(C)(=O)=Nc1nc(-c2ccccc2)co1 (stereo not drawn) [Compound 74]	< 80
Cc1cnc(N=S(C)(=O)C(C)c2ccc(C(F)(F)F)nc2)s1 (stereo not drawn) [Compound 63, 5-{1-[methyl(5-methyl-1,3-thiazol-2-yl)sulfonimidoyl]ethyl}-2-(trifluoromethyl)pyridine]	80 to 100
CC(c1ccc(C(F)(F)F)nc1)S(C)(=O)=Nc1ncc(C#N)s1 (stereo not drawn) [Compound 16]	80 to 100
Cc1ccc(-c2csc(N=S(C)(=O)C(C)c3ccc(C(F)(F)F)nc3)n2)cc1 (stereo not drawn) [Compound 19, 5-{1-[methyl(4-(4-methylphenyl)-1,3-thiazol-2-yl)sulfonimidoyl]ethyl}-2-(trifluoromethyl)pyridine]	80 to 100
CC(c1ccc(C(F)(F)F)nc1)S(C)(=O)=Nc1nc(-c2cccc(Cl)c2)cs1 (stereo not drawn) [Compound 21]	80 to 100
Cc1sc(N=S(C)(=O)C(C)c2ccc(C(F)(F)F)nc2)nc1-c1ccc(Br)cc1 (stereo not drawn) [Compound 68, 5-{1-[[4-(4-bromophenyl)-5-methyl-1,3-thiazol-2-yl](methyl)sulfonimidoyl]ethyl}-2-(trifluoromethyl)pyridine]	80 to 100
CC(c1ccc(C(F)(F)F)nc1)S(C)(=O)=Nc1nc2ccccc2s1 (stereo not drawn) [Compound 25, 3-[1-ethyl(N-(2-benzothiazole)-sulfoximinyl)(methyl)]-6-trifluoromethylpyridine]	< 80
